Tested on: pro-form MMP-9
Assay: Western blot: pro-form MMP-9 expression in LPS-treated NR8383 cells
Format: cell-based, rat
Details: 0.01 μg/mL LPS; 6.25 to 50 μg/mL; 24 hours
Method: Rat alveolar macrophage NR8383 cells were divided into six groups and separately cultivated with the following media for 24 hours: • (1) Control group: a macrophage growth medium containing 0.01 μg/mL LPS; • (2) Positive control group: a macrophage growth medium containing 0.01 μg/mL LPS and 1 μM Dex; and • (3) Extract A group (including four sub-groups): a macrophage growth medium containing 0.01 μg/mL LPS and the extract A provided by [preparation example A-2-2], wherein the extract A is present in the four sub-groups at a concentration of 6.25, 12.5, 25 and 50 μg/mL respectively.
Thereafter, the proteins in the cells of each group were extracted and then subjected to a Western blot to measure the expression level of pro-form MMP-9 (i.e., the zymogen form of MMP-9), active-form MMP-9 and MMP-12. The relative expression level of pro-form MMP-9, active-form MMP-9 and MMP-12 of each group was calculated by using the results of the control group as a basis (i.e., the expression level of control group was served as 1-fold).
Rat alveolar macrophage NR8383 cells were divided into ten groups and separately cultivated with the following media for 24 hours:
(1) Control group: a macrophage growth medium containing 0.01 μg/mL LPS;
(2) Positive control group: a macrophage growth medium containing 0.01 μg/mL LPS and 1 μM Dex; […]

SMILES: C=C(CC[C@@H](C(=O)O)[C@H]1[C@H](O)C[C@@]2(C)C3=CC[C@@H](C(=C)C)[C@](C)(CCC(=O)O)C3=CC[C@]12C)C(C)C [PAA, poricoic acid A]
- Expression level of pro-form MMP-9 in comparison with the control group (in words): effective in inhibiting
